Test results from PubChem BioAssay (NCI).
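How tested: cells in 96-well plates exposed to compound for 48 hours at five concentrations. At the TGI there is no net growth.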

Key:
Experiment in all cases: NCI-60 cell line screen, 48 h
SF-539 CNS = tested on: SF-539 CNS
MCF7 breast = tested on: MCF7 breast
UACC-257 melanoma = tested on: UACC-257 melanoma
IGROV1 ovarian = tested on: IGROV1 ovarian
SR leukemia = tested on: SR leukemia
SF-268 CNS = tested on: SF-268 CNS
TK-10 renal = tested on: TK-10 renal
UO-31 renal = tested on: UO-31 renal
CCRF-CEM leukemia = tested on: CCRF-CEM leukemia
RPMI-8226 leukemia = tested on: RPMI-8226 leukemia
SNB-75 CNS = tested on: SNB-75 CNS
SK-MEL-2 melanoma = tested on: SK-MEL-2 melanoma
SN12C renal = tested on: SN12C renal
HCT-15 colon = tested on: HCT-15 colon
SW-620 colon = tested on: SW-620 colon
SNB-19 CNS = tested on: SNB-19 CNS
NCI/ADR-RES ovarian = tested on: NCI/ADR-RES ovarian
SK-MEL-5 melanoma = tested on: SK-MEL-5 melanoma
KM12 colon = tested on: KM12 colon
HOP-62 NSCLC = tested on: HOP-62 NSCLC
COLO 205 colon = tested on: COLO 205 colon
ACHN renal = tested on: ACHN renal
M14 melanoma = tested on: M14 melanoma
DU-145 prostate = tested on: DU-145 prostate
LOX IMVI melanoma = tested on: LOX IMVI melanoma
MDA-MB-231 breast = tested on: MDA-MB-231 breast
MDA-MB-435 = tested on: MDA-MB-435
CAKI-1 renal = tested on: CAKI-1 renal
NCI-H460 lung = tested on: NCI-H460 lung
MDA-N = tested on: MDA-N
T-47D breast = tested on: T-47D breast
RXF 393 renal = tested on: RXF 393 renal
A549 NSCLC = tested on: A549 NSCLC
BT-549 breast = tested on: BT-549 breast
OVCAR-8 ovarian = tested on: OVCAR-8 ovarian
A498 renal = tested on: A498 renal
NCI-H522 lung = tested on: NCI-H522 lung
EKVX NSCLC = tested on: EKVX NSCLC
K-562 leukemia = tested on: K-562 leukemia
MALME-3M melanoma = tested on: MALME-3M melanoma
HL-60(TB) leukemia = tested on: HL-60(TB) leukemia
NCI-H23 lung = tested on: NCI-H23 lung
HT29 colon = tested on: HT29 colon
PC-3 prostate = tested on: PC-3 prostate
HOP-92 NSCLC = tested on: HOP-92 NSCLC
SK-OV-3 ovarian = tested on: SK-OV-3 ovarian
786-0 renal = tested on: 786-0 renal
OVCAR-5 ovarian = tested on: OVCAR-5 ovarian
MOLT-4 leukemia = tested on: MOLT-4 leukemia
HS 578T breast = tested on: HS 578T breast
NCI-H226 lung = tested on: NCI-H226 lung
OVCAR-4 ovarian = tested on: OVCAR-4 ovarian
SF-295 CNS = tested on: SF-295 CNS
OVCAR-3 ovarian = tested on: OVCAR-3 ovarian
UACC-62 melanoma = tested on: UACC-62 melanoma
SK-MEL-28 melanoma = tested on: SK-MEL-28 melanoma
HCT-116 colon = tested on: HCT-116 colon
U251 CNS = tested on: U251 CNS

CC(=O)c1c(C(F)(F)F)n([O-])c2cc(Cl)c(Cl)cc2[n+]1=O
TGI (SF-539 CNS): 2460 nM
TGI (MCF7 breast): 1520 nM
TGI (UACC-257 melanoma): 2110 nM
TGI (IGROV1 ovarian): 498 nM
TGI (SR leukemia): 36.1 nM
TGI (SF-268 CNS): 2530 nM
TGI (TK-10 renal): 1090 nM
TGI (UO-31 renal): 1590 nM
TGI (CCRF-CEM leukemia): 563 nM
TGI (RPMI-8226 leukemia): 353 nM
TGI (SNB-75 CNS): 2250 nM
TGI (SK-MEL-2 melanoma): 2720 nM
TGI (SN12C renal): 2690 nM
TGI (HCT-15 colon): 759 nM
TGI (SW-620 colon): 1340 nM
TGI (SNB-19 CNS): 2270 nM
TGI (NCI/ADR-RES ovarian): 4850 nM
TGI (SK-MEL-5 melanoma): 2060 nM
TGI (KM12 colon): 403 nM
TGI (HOP-62 NSCLC): 887 nM
TGI (COLO 205 colon): 2110 nM
TGI (ACHN renal): 1920 nM
TGI (M14 melanoma): 2610 nM
TGI (DU-145 prostate): 3370 nM
TGI (LOX IMVI melanoma): 489 nM
TGI (MDA-MB-231 breast): 2990 nM
TGI (MDA-MB-435): 2670 nM
TGI (CAKI-1 renal): 3330 nM
TGI (NCI-H460 lung): 852 nM
TGI (MDA-N): 2410 nM
TGI (T-47D breast): 2960 nM
TGI (RXF 393 renal): 2510 nM
TGI (A549 NSCLC): 1910 nM
TGI (BT-549 breast): 800 nM
TGI (OVCAR-8 ovarian): 1840 nM
TGI (A498 renal): 2500 nM
TGI (NCI-H522 lung): 368 nM
TGI (EKVX NSCLC): 2890 nM
TGI (K-562 leukemia): 3420 nM
TGI (MALME-3M melanoma): 2470 nM
TGI (HL-60(TB) leukemia): 1430 nM
TGI (NCI-H23 lung): 2710 nM
TGI (HT29 colon): 2540 nM
TGI (PC-3 prostate): 3090 nM
TGI (HOP-92 NSCLC): 880 nM
TGI (SK-OV-3 ovarian): 2900 nM
TGI (786-0 renal): 380 nM
TGI (OVCAR-5 ovarian): 3290 nM
TGI (MOLT-4 leukemia): 544 nM
TGI (HS 578T breast): 2380 nM
TGI (NCI-H226 lung): 3080 nM
TGI (OVCAR-4 ovarian): 2730 nM
TGI (SF-295 CNS): 2270 nM
TGI (OVCAR-3 ovarian): 3190 nM
TGI (UACC-62 melanoma): 2580 nM
TGI (SK-MEL-28 melanoma): 3870 nM
TGI (HCT-116 colon): 1610 nM
TGI (U251 CNS): 2630 nM
